Assay [1] has as its system leukotriene pathway in human whole blood (LTB4 levels). Briefly: Human whole blood assay (A23187-stimulated LTB4). The format is cell-based. Conditions: Homo sapiens, read-out: LTB4 IC50 1:1. Put shortly: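 Blood (heparin) diluted 1:1 RPMI; compound pre-incubation 15 min, 37° Celsius; A23187 7 μg/mL, 30 min, 37° Celsius; plasma LTB4 by commercial kit. IC50 via 4-parameter equation.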

The target in assay [2] is human FLAP (Homo sapiens (Human), UniProt P20292). As to the kind of experiment: FLAP binding assay (HTRF format). The note with it: wild type FLAP, HTRF format. Put shortly: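 Read-out is the HTRF ratio. Each reported figure averages two assay plates on which samples were tested in duplicate.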
On the technique in general: Time-resolved FRET reads energy transfer from a long-lived donor to a nearby acceptor.

The mark [3] stands for this setting: human whole blood diluted 1:1, A23187-stimulated.

Structures are written as SMILES. Like-named read-outs stand apart in the source and are kept apart here.

Chain of human FLAP (P20292 whole entry): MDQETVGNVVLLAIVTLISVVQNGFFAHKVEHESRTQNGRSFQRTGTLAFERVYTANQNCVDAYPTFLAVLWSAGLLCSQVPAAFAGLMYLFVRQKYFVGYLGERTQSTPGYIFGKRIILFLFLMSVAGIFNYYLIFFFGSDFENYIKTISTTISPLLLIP

With `Cc1ccnc(Oc2ccccc2-c2ccc(-c3cnc(N)nc3)c(F)c2)n1` [Example 546, 5-{3-Fluoro-2′-[(4-methylpyrimidin-2-yl)oxy]biphenyl-4-yl}pyrimidin-2-amine], the IC50 in assay [1] (setting [3]) stood at 253 nM. For the same molecule, in assay [2], affinity was put at a Ki of 148 nM.
Take `Nc1cnc(-c2ccc(-c3ccccc3Oc3ccnc(C(F)(F)F)n3)cc2F)cn1` [Example 547, 5-(3-Fluoro-2′-{[2-(trifluoromethyl)pyrimidin-4-yl]oxy}biphenyl-4-yl)pyrazin-2-amine]: the half-inhibitory concentration (IC50) in assay [1] (setting [3]) was 104 nM. The affinity in assay [2] corresponds to a Ki of 35 nM.
The matching figures for `Nc1ncc(-c2ccc(-c3ccccc3Oc3ccnc(C(F)(F)F)n3)cc2F)cn1` [Example 548, 5-(3-Fluoro-2′-{[2-(trifluoromethyl)pyrimidin-4-yl]oxy}biphenyl-4-yl)pyrimidin-2-amine]: 741 nM and 467 nM.
`COc1cnc(Oc2ccccc2-c2ccc(-c3cnc(N)cn3)c(F)c2)nc1` [Example 549, 5-{3-Fluoro-2′-[(5-methoxypyrimidin-2-yl)oxy]biphenyl-4-yl}pyrazin-2-amine]: the IC50 in assay [1] (setting [3]) was found to be 123 nM. Besides, in assay [2], the affinity corresponds to a Ki of 9 nM.
For `COc1cnc(Oc2ccccc2-c2ccc(-c3cnc(N)nc3)c(F)c2)nc1` [Example 550, 5-{3-Fluoro-2′-[(5-methoxypyrimidin-2-yl)oxy]biphenyl-4-yl}pyrimidin-2-amine], in assay [1] (setting [3]), the IC50 is 16 nM. In assay [2], this molecule yielded a Ki of 2 nM.
For `Nc1ncc(-c2ccc(-c3ccc(C(F)(F)F)cc3Oc3ncccn3)cc2F)cn1` [Example 552, 5-[3-Fluoro-2′-(pyrimidin-2-yloxy)-4′-(trifluoromethyl)biphenyl-4-yl]pyrimidin-2-amine], the IC50 in assay [1] (setting [3]) was 102 nM. Also, the Ki in assay [2] worked out at 5 nM.
As for `Nc1cnc(-c2ccc(-c3ccc(C(F)(F)F)cc3O)cc2F)cn1` [Example 554, 4′-(5-Aminopyrazin-2-yl)-3′-fluoro-4-(trifluoromethyl)biphenyl-2-ol], the IC50 in assay [1] (setting [3]) came to 39 nM. The Ki in assay [2] was found to be 2 nM.
For the molecule `Nc1cnc(-c2ccc(-c3ccc(C(F)(F)F)cc3Oc3ccnc(N)n3)cc2F)cn1` [Example 555, 4-{[4′-(5-Aminopyrazin-2-yl)-3′-fluoro-4-(trifluoromethyl)biphenyl-2-yl]oxy}pyrimidin-2-amine], the 50% inhibitory concentration (IC50) in assay [1] (setting [3]) was 24 nM. Besides, in assay [2], the Ki was 2 nM.
Take `Nc1cnc(-c2ccc(-c3ccc(C(F)(F)F)cc3Oc3nccc(N)n3)cc2F)cn1` [Example 556, 2-{[4′-(5-Aminopyrazin-2-yl)-3′-fluoro-4-(trifluoromethyl)biphenyl-2-yl]oxy}pyrimidin-4-amine]: in assay [1] (setting [3]), the IC50 was 13 nM. The same molecule yielded a Ki in assay [2] of 1 nM.
In the case of `C[Si](C)(C)CCOCOc1cc(C(F)(F)F)ccc1-c1ccc(-c2cnc(N)nc2)c(F)c1` [Example 557, 5-[3-Fluoro-4′-(trifluoromethyl)-2′-{[2-(trimethylsilyl)ethoxy]methoxy}biphenyl-4-yl]-pyrimidin-2-amine], the IC50 in assay [1] came out at 1070 nM. The Ki in assay [2] was 147 nM.
For `Nc1ncc(-c2ccc(-c3ccc(C(F)(F)F)cc3O)cc2F)cn1` [Example 558, 4′-(2-Aminopyrimidin-5-yl)-3′-fluoro-4-(trifluoromethyl)biphenyl-2-ol], the IC50 in assay [1] (setting [3]) amounted to 210 nM. The molecule further came in with a Ki in assay [2] of 12 nM.
For `Nc1ccnc(Oc2cc(C(F)(F)F)ccc2-c2ccc(-c3cnc(N)nc3)c(F)c2)n1` [Example 559, 5-{2′-[(4-Aminopyrimidin-2-yl)oxy]-3-fluoro-4′-(trifluoromethyl)biphenyl-4-yl}pyrimidin-2-amine], the concentration for half-maximal inhibition (IC50) in assay [1] (setting [3]) turned out to be 55 nM. For the same molecule, the affinity in assay [2], expressed as Ki, was 2 nM.
For `Nc1ncc(-c2ccc(-c3ccc(C(F)(F)F)cc3Oc3ccnc(N)n3)cc2F)cn1` [Example 560, 4-{[4′-(2-Aminopyrimidin-5-yl)-3′-fluoro-4-(trifluoromethyl)biphenyl-2-yl]oxy}pyrimidin-2-amine], the IC50 in assay [1] (setting [3]) is 95 nM. In assay [2], this molecule had a Ki of 5 nM.
For the molecule `Nc1cc(Oc2cc(C(F)(F)F)ccc2-c2ccc(-c3cnc(N)nc3)c(F)c2)ncn1` [Example 561, 5-{2′-[(6-Aminopyrimidin-4-yl)oxy]-3-fluoro-4′-(trifluoromethyl)biphenyl-4-yl}pyrimidin-2-amine], the IC50 in assay [1] (setting [3]) came out at 43 nM. The molecule also gave a Ki in assay [2] of 4 nM.
The matching figures for `Nc1cnc(-c2ccc(-c3ccc(C(F)(F)F)cc3C(F)(F)F)cc2F)cn1` [Example 562, 5-[3-Fluoro-2′,4′-bis(trifluoromethyl)biphenyl-4-yl]pyrazin-2-amine]: 226 nM and 55 nM.
Take `N#Cc1cc(C(F)(F)F)ccc1-c1ccc(-c2cnc(N)cn2)c(F)c1` [Example 563, 4′-(5-Aminopyrazin-2-yl)-3′-fluoro-4-(trifluoromethyl)biphenyl-2-carbonitrile]: in assay [1] (setting [3]), the IC50 amounted to 328 nM. For the same molecule, the Ki in assay [2] came to 20 nM.
The matching figures for `Nc1ncc(-c2ccc(-c3ccc(C(F)(F)F)cc3Oc3ncccn3)cn2)cn1` [Example 564, 5-{5-[2-(Pyrimidin-2-yloxy)-4-(trifluoromethyl)phenyl]pyrridn-2-yl}pyrimidin-2-amine]: 583 nM and 200 nM.
Consider `Nc1ncc(-c2ccc(-c3ccc(C(F)(F)F)cc3Oc3ccnc(N)n3)cn2)cn1` [Example 565, 4-{2-[6-(2-Aminopyrimidin-5-yl)pyridin-3-yl]-5-(trifluoromethyl)phenoxy}pyrimidin-2-amine], for which the IC50 in assay [1] (setting [3]) is 984 nM. In assay [2], affinity was put at a Ki of 81 nM.
The matching figures for `Cc1cc(-c2ccccc2S(=O)(=O)NC(C)(C)C)ccc1-c1cnc(N)cn1` [Example 569, 4′-(5-Aminopyrazin-2-yl)-N-tert-butyl-3′-methylbiphenyl-2-sulfonamide]: 335 nM and 70 nM.
As to `COc1cc(-c2ccccc2S(=O)(=O)NC(C)(C)C)ccc1-c1cnc(N)cn1` [Example 570, 4′-(5-Aminopyrazin-2-yl)-N-tert-butyl-3′-methoxybiphenyl-2-sulfonamide], the IC50 in assay [1] (setting [3]) turned out to be 1180 nM. The molecule also returned a Ki in assay [2] of 35 nM.
With `CC(C)(C)NS(=O)(=O)c1ccccc1-c1ccc(-c2cnc(N)cn2)cc1` [Example 571, 4′-(5-Aminopyrazin-2-yl)-N-tert-butylbiphenyl-2-sulfonamide], the IC50 in assay [1] (setting [3]) was 91 nM. In assay [2], this molecule came in with a Ki of 2 nM.
On to `CC(C)(C)NS(=O)(=O)c1ccccc1-c1ccc(-c2cnc(N)cn2)cc1F` [Example 574, 4′-(5-Aminopyrazin-2-yl)-N-tert-butyl-2′-fluorobiphenyl-2-sulfonamide], for which the IC50 in assay [1] (setting [3]) is 494 nM. The molecule further showed a Ki in assay [2] of 15 nM.
For the molecule `CC(C)(C)NS(=O)(=O)c1ccccc1-c1ccc(-c2coc(N)n2)c(F)c1` [Example 576, 4′-(2-Amino-1,3-oxazol-4-yl)-N-tert-butyl-3′-fluorobiphenyl-2-sulfonamide], in assay [1] (setting [3]), the IC50 is 116 nM. In addition, the affinity in assay [2], expressed as Ki, was 8 nM.
As for `CC(C)(C)NS(=O)(=O)c1ccccc1-c1ccc(-c2csc(N)n2)c(F)c1` [Example 577, 4′-(2-Amino-1,3-thiazol-4-yl)-N-tert-butyl-3′-fluorobiphenyl-2-sulfonamide], the IC50 in assay [1] (setting [3]) is 91 nM. In addition, in assay [2], the affinity, expressed as Ki, was 10 nM.
The corresponding values for `CCN(CC)S(=O)(=O)c1ccccc1-c1ccc(-c2csc(N)n2)c(F)c1` [Example 578, 4′-(2-Amino-1,3-thiazol-4-yl)-N,N-diethyl-3′-fluorobiphenyl-2-sulfonamide] are 956 nM and 25 nM.
In the case of `CC(C)(C)NS(=O)(=O)c1ccccc1-c1ccc(-c2cn3cccc(F)c3n2)c(F)c1` [Example 580, N-tert-Butyl-3′-fluoro-4′-(8-fluoroimidazo[1,2-a]pyridin-2-yl)biphenyl-2-sulfonamide], the IC50 in assay [1] (setting [3]) came out at 5000 nM. Besides, the Ki in assay [2] came out at 55 nM.
With `CC(C)(C)NS(=O)(=O)c1ccccc1-c1ccc(-c2cn3c(N)cccc3n2)c(F)c1` [Example 581, 4′-(5-Aminoimidazo[1,2-a]pyridin-2-yl)-N-tert-butyl-3′-fluorobiphenyl-2-sulfonamide], the IC50 in assay [1] (setting [3]) is 2820 nM. Moreover, the Ki in assay [2] turned out to be 60 nM.
Consider `COc1cccc2nc(-c3ccc(-c4ccccc4S(=O)(=O)NC(C)(C)C)cc3F)cn12` [Example 588, N-tert-Butyl-3′-fluoro-4′-(5-methoxyimidazo[1,2-a]pyridin-2-yl)biphenyl-2-sulfonamide], for which, in assay [1] (setting [3]), the IC50 was > 10000 nM. The same molecule came in with a Ki in assay [2] of 133 nM.
With `Nc1cnc(-c2ccc(-c3ccccc3-c3ccc(-c4cnc(N)cn4)c(F)c3)cc2F)cn1` [Example 602, 5,5′-(3,3″-Difluoro-1,1′:2′,1″-terphenyl-4,4″-diyl)dipyrazin-2-amine], in assay [1] (setting [3]), the IC50 was 16.7 nM. This molecule also came in with an inhibitory constant (Ki) in assay [2] of 0.6 nM.
As for `Nc1cnc(-c2ccc(-c3ccc(C(F)(F)F)cc3C(=O)O)cc2F)cn1` [Example 603, 4′-(5-Aminopyrazin-2-yl)-3′-fluoro-4-(trifluoromethyl)biphenyl-2-carboxylic acid], the IC50 in assay [1] (setting [3]) was > 10000 nM. For the same molecule, affinity in assay [2] was put at a Ki of 27.6 nM.
The matching figures for `Nc1cnc(-c2ccc(-c3ccc(C(F)(F)F)cc3C=O)cc2F)cn1` [Example 604, 4′-(5-Aminopyrazin-2-yl)-3′-fluoro-4-(trifluoromethyl)biphenyl-2-carbaldehyde]: 89.4 nM and 5 nM.
Consider `Nc1cnc(-c2ccc(-c3ccc(C(F)(F)F)cc3CN3CCOCC3)cc2F)cn1` [Example 605, 5-[3-Fluoro-2′-(morpholin-4-ylmethyl)-4′-(trifluoromethyl)biphenyl-4-yl]pyrazin-2-amine], for which, in assay [1] (setting [3]), the 50% inhibitory concentration (IC50) was determined as 97.8 nM. Besides, the inhibition constant (Ki) in assay [2] came out at 1.9 nM.
As to `Nc1cnc(-c2ccc(-c3ccc(C(F)(F)F)cc3CN3CCC(N)CC3)cc2F)cn1` [Example 606, 5-{2′-[(4-Aminopiperidin-1-yl)methyl]-3-fluoro-4′-(trifluoromethyl)biphenyl-4-yl}pyrazin-2-amine], the IC50 in assay [1] (setting [3]) is 2620 nM. The same molecule registered a Ki in assay [2] of 46.3 nM.

The term IC50 denotes the concentration that gives 50% inhibition. The term Ki denotes a dissociation constant, usually derived from enzyme kinetics or from competition with a known ligand.

These data come from patent US9079866B2, “Flap modulators” (JANSSEN PHARMACEUTICA NV, priority 2013, dated 2015).
